Results from ChEMBL document CHEMBL4339201, “A survey of core replacements in indole-based HIV-1 attachment inhibitors” (Bioorg Med Chem Lett, 2019).

Experiments:
[1] = tested on: Human immunodeficiency virus 1; test: Antiviral activity against ENV pseudotyped HIV1 […] infected in human HeLa67 cells expressing CD4/CCR5[…] after 72 hrs by luciferase reporter gene assay; format: functional, organism-based; conditions: Human immunodeficiency virus 1, HeLa67, 72 h
[2] = Cytotoxicity against human MT2 cells assessed as decrease in cell viability; format: cell-based

EC50 [1] [nM] | Structure (SMILES) | CC50 [2] [µM]
4.4 | C[C@H]1CN(C(=O)c2ccccc2)CCN1C(=O)C(=O)c1ccc2ccccc2n1 | 166
0.2 | CC1CN(C(=O)c2ccccc2)CCN1C(=O)C(=O)c1ccc2cc(O)ccc2n1 (stereo not given) | 210
2.4 | C[C@@H]1CN(C(=O)c2ccccc2)CCN1C(=O)C(=O)c1ccc2ccccc2c1 | 171
4 | C[C@@H]1CN(C(=O)c2ccccc2)CCN1C(=O)C(=O)c1c[nH]c2ccccc12 | 200
12 | C[C@@H]1CN(C(=O)c2ccccc2)CCN1C(=O)C(=O)c1nc2ccccc2n1C | > 300
407 | C[C@@H]1CN(C(=O)c2ccccc2)CCN1C(=O)C(=O)c1cc2cccn2cn1 | > 300
764 | O=C(C(=O)N1CCN(C(=O)c2ccccc2)CC1)c1csc2ccccc12 | 141
0.2 | COc1ccc2nc(C(=O)C(=O)N3CCN(C(=O)c4ccccc4)CC3C)ccc2c1 (stereo not given) | 184
358 | C[C@@H]1CN(C(=O)c2ccccc2)CCN1C(=O)C(=O)c1cc2sccc2s1 | > 300
30 | C[C@@H]1CN(C(=O)c2ccccc2)CCN1C(=O)C(=O)c1ccc2cc(C#N)ccc2c1 | 102
3610 | O=C(C(=O)N1CCN(C(=O)c2ccccc2)CC1)c1ccc2nccnc2c1 | > 300
86 | C[C@@H]1CN(C(=O)c2ccccc2)CCN1C(=O)C(=O)c1ccc2scnc2c1 | > 300
1.2 | CC1CN(C(=O)c2ccccc2)CCN1C(=O)C(=O)c1ccc2ccccc2n1 (stereo not given) | 266
0.1 | COc1ccc2cc(C(=O)C(=O)N3CCN(C(=O)c4ccccc4)C[C@H]3C)ccc2c1 | 41
11.9 | C[C@@H]1CN(C(=O)c2ccccc2)CCN1C(=O)C(=O)c1ccc2cc(C(N)=O)ccc2c1 | 189
17 | C[C@@H]1CN(C(=O)c2ccccc2)CCN1C(=O)C(=O)c1c[nH]c2c1ccc1cccnc12 | 45
52 | O=C(C(=O)N1CCN(C(=O)c2ccccc2)CC1)c1cn2c(n1)sc1ccccc12 | > 300
1010 | CC1CN(C(=O)c2ccccc2)CCN1C(=O)C(=O)c1cccc2cc[nH]c12 (stereo not given) | 212
> 5000 | CC1CN(C(=O)c2ccccc2)CCN1C(=O)C(=O)c1cnc2ncccn12 (stereo not given) | > 300
1.7 | CC1CN(C(=O)c2ccccc2)CCN1C(=O)C(=O)c1ccc2cc(Br)ccc2n1 (stereo not given) | 134

EC50 [1] [nM] | Structure (SMILES) | CC50 [2] [µM]
135 | O=C(C(=O)N1CCN(C(=O)c2ccccc2)CC1)c1ccc2ccccc2c1 | 94
655 | C[C@@H]1CN(C(=O)c2ccccc2)CCN1C(=O)C(=O)c1n[nH]c2ccccc12 | > 300
2860 | O=C(C(=O)N1CCN(C(=O)c2ccccc2)CC1)c1ccc2cccnc2c1 | > 300
255 | O=C(C(=O)N1CCN(C(=O)c2ccccc2)CC1)c1ccc2[nH]ccc2c1 | > 250
 | O=C(C(=O)N1CCN(C(=O)c2ccccc2)CC1)c1c[nH]c2ccccc12 | 339
3060 | C[C@@H]1CN(C(=O)c2ccccc2)CCN1C(=O)C(=O)c1ccc2[nH]nnc2c1 | > 300
5.9 | CC1CN(C(=O)c2ccccc2)CCN1C(=O)C(=O)c1ccc2cc(F)ccc2n1 (stereo not given) | 258
27 | C[C@@H]1CN(C(=O)c2ccccc2)CCN1C(=O)C(=O)c1ccc2cc(C(=O)O)ccc2c1 | > 300
56 | COc1cc(C(=O)C(=O)N2CCN(C(=O)c3ccccc3)C[C@H]2C)nc2ccccc12 | 96
355 | O=C(C(=O)N1CCN(C(=O)c2ccccc2)CC1)c1cccc2ccccc12 | > 300
2320 | C[C@@H]1CN(C(=O)c2ccccc2)CCN1C(=O)C(=O)c1cc2sccc2[nH]1 | 106
0.4 | CC1CN(C(=O)c2ccccc2)CCN1C(=O)C(=O)c1ccc2c(O)cccc2n1 (stereo not given) | 195
0.16 | C[C@@H]1CN(C(=O)c2ccccc2)CCN1C(=O)C(=O)c1ccc2cc(C(=N)NO)ccc2c1 | 234
> 5000 | O=C(C(=O)N1CCN(C(=O)c2ccccc2)CC1)c1ccc2cccnc2n1 | > 300
> 5000 | O=C(C(=O)N1CCN(C(=O)c2ccccc2)CC1)c1cnn2ccccc12 | > 300
2.6 | COc1ccc2nc(C(=O)C(=O)N3CCN(C(=O)c4ccccc4)C[C@H]3C)sc2c1 | 151
137 | O=C(C(=O)N1CCN(C(=O)c2ccccc2)CC1)c1ccc2cnccc2n1 | > 300
4.8 | COc1ccc2cc(C(=O)C(=O)N3CCN(C(=O)c4ccccc4)CC3C)[nH]c2c1 (stereo not given) | 27
108 | O=C(C(=O)N1CCN(C(=O)c2ccccc2)CC1)c1cnc2ccccc2n1 | > 300
2840 | O=C(C(=O)N1CCN(C(=O)c2ccccc2)CC1)c1cc2ccccc2s1 | 9

EC50 [1] [nM] | Structure (SMILES) | CC50 [2] [µM]
11 | C[C@@H]1CN(C(=O)c2ccccc2)CCN1C(=O)C(=O)c1cn2c(n1)sc1ccccc12 | > 300
182 | O=C(C(=O)N1CCN(C(=O)c2ccccc2)CC1)c1cc2ccccc2cn1 | > 300
> 5000 | COc1ccc2[nH]c(C(=O)C(=O)N3CCN(C(=O)c4ccccc4)CC3C)cc2c1 (stereo not given) | 33
> 5000 | CC1CN(C(=O)c2ccccc2)CCN1C(=O)C(=O)c1cnc2ccccn12 (stereo not given) | > 300
798 | C[C@@H]1CN(C(=O)c2ccccc2)CCN1C(=O)C(=O)c1nc2ccccc2[nH]1 | > 300
219 | C[C@@H]1CN(C(=O)c2ccccc2)CCN1C(=O)C(=O)c1cc2ccccc2[nH]1 | 
734 | CC1CN(C(=O)c2ccccc2)CCN1C(=O)C(=O)c1nsc2ccccc12 (stereo not given) | 75
4.6 | C[C@@H]1CN(C(=O)c2ccccc2)CCN1C(=O)C(=O)c1cnc2ccccc2n1 | > 300
26 | C[C@H]1CN(C(=O)c2ccccc2)CCN1C(=O)C(=O)c1cnc2ccccc2n1 | 114
> 5000 | O=C(C(=O)N1CCN(C(=O)c2ccccc2)CC1)c1nc2ccccc2o1 | > 300
2460 | O=C(C(=O)N1CCN(C(=O)c2ccccc2)CC1)c1nc2ccccc2[nH]1 | > 300
13 | O=C(C(=O)N1CCN(C(=O)c2ccccc2)CC1)c1ccc2ccccc2n1 | > 300
561 | O=C(C(=O)N1CCN(C(=O)c2ccccc2)CC1)c1cc2ccccc2[nH]1 | > 300
34 | C[C@@H]1CN(C(=O)c2ccccc2)CCN1C(=O)C(=O)c1nc2ccccc2s1 | > 230
2.9 | COc1cccc2nc(C(=O)C(=O)N3CCN(C(=O)c4ccccc4)CC3C)ccc12 (stereo not given) | 200
> 5000 | COc1cc(OC)c2cc(C(=O)C(=O)N3CCN(C(=O)c4ccccc4)CC3C)[nH]c2c1 (stereo not given) | 68
1.3 | C[C@@H]1CN(C(=O)c2ccccc2)CCN1C(=O)C(=O)c1ccc2cc(Br)ccc2c1 | 301
0.7 | C[C@@H]1CN(C(=O)c2ccccc2)CCN1C(=O)C(=O)c1ccc2ccccc2n1 | 198
0.03 | C[C@@H]1CN(C(=O)c2ccccc2)CCN1C(=O)C(=O)c1ccc2cc(-c3nccs3)ccc2c1 | 
